Results published in US20100267635A1, “USE OF PROTEASE INHIBITORS AND GRF MOLECULES IN COMBINATION THERAPY” (THERATECHONOLGIES INC., priority 2009, published 2010).

Key:
CYP3A = test: Impact of TH9507 on CYP3A activity, concluded from the ritonavir PK interaction study; format: in vivo, human; conditions: 2 mg TH9507 s.c. days 1 to 7, ritonavir as probe
From the text: (§1) The 90% CIs for the Treatment A/Treatment B LSM ratios for AUC0-t.

[1] = Plasma TH9507 PK (ELISA) on day 6 in the ritonavir interaction study; format: in vivo; conditions: both sexes, human, sc, 2 mg s.c. once daily
Description: (§2) 2 ml of TH9507 (1 mg/ml injectable solution) was administered by subcutaneous injection under fasting conditions once daily for 7 consecutive days (daily dose of 2 mg TH9507).
(§3) N=32 healthy adult (male and female) subjects were enrolled. Dosing occurred in two groups.
(§4) PK/statistics: PK parameters were calculated using standard noncompartmental approaches.

[2] = Two-way crossover drug interaction study: plasma ritonavir PK with (Treatment A) and without (Treatment B) TH9507; format: in vivo, human
Description: as §2, §3, §4, §1

**Q.** What does the source list for CC/C=C/CC(=O)N[C@@H](Cc1ccc(O)cc1)C(=O)N[C@@H](C)C(=O)N[C@@H](CC(=O)O)C(=O)N[C@@H](C)C(=O)N[C@H](C(=O)N[C@@H](Cc1ccccc1)C(=O)N[C@H](C(=O)N[C@@H](CC(N)=O)C(=O)N[C@@H](CO)C(=O)N[C@@H](Cc1ccc(O)cc1)C(=O)N[C@@H](CCCNC(=N)N)C(=O)N[C@@H](CCCCN)C(=O)N[C@H](C(=O)N[C@@H](CC(C)C)C(=O)NCC(=O)N[C@@H](CCC(N)=O)C(=O)N[C@@H](CC(C)C)C(=O)N[C@@H](CO)C(=O)N[C@@H](C)C(=O)N[C@@H](CCCNC(=N)N)C(=O)N[C@@H](CCCCN)C(=O)N[C@@H](CC(C)C)C(=O)N[C@@H](CC(C)C)C(=O)N[C@@H](CCC(N)=O)C(=O)N[C@@H](CC(=O)O)C(=O)N[C@H](C(=O)N[C@@H](CCSC)C(=O)N[C@@H](CO)C(=O)N[C@@H](CCCNC(=N)N)C(=O)N[C@@H](CCC(N)=O)C(=O)N[C@@H](CCC(N)=O)C(=O)NCC(=O)N[C@@H](CCC(=O)O)C(=O)N[C@@H](CO)C(=O)N[C@@H](CC(N)=O)C(=O)N[C@@H](CCC(N)=O)C(=O)N[C@@H](CCC(=O)O)C(=O)N[C@@H](CCCNC(=N)N)C(=O)NCC(=O)N[C@@H](C)C(=O)N[C@@H](CCCNC(=N)N)C(=O)N[C@@H](C)C(=O)N[C@@H](CCCNC(=N)N)C(=O)N[C@@H](CC(C)C)C(N)=O)[C@@H](C)CC)C(C)C)[C@@H](C)O)[C@@H](C)CC [TH9507, (hexenoyl trans-3)hGRF(1-44)NH2]?
**A.** impact on CYP3A activity (CYP3A): not significant; half-life ([1]; arithmetic mean): 6.6 min; AUC(0-inf) ([1]; geometric mean): 0.79 ng·h/mL; AUC(0-t) ([1]; geometric mean): 0.657 ng·h/mL; Cmax ([1]; geometric mean): 2.7 ng/mL; Tmax ([1]; median): 9 min

**Q.** What does the source list for CC(C)c1nc(CN(C)C(=O)N[C@H](C(=O)N[C@@H](Cc2ccccc2)C[C@H](O)[C@H](Cc2ccccc2)NC(=O)OCc2cncs2)C(C)C)cs1 [Ritonavir, 1,3-thiazol-5-ylmethyl N-[(2S,3S,5S)-3-hydroxy-5-[(2S)-3-methyl-2-{[methyl({[2-(propan-2-yl)-1,3-thiazol-4-yl]methyl})carbamoyl]amino}butanamido]-1,6-diphenylhexan-2-yl]carbamate]?
**A.** Cmax ([2]; both sexes, human, plasma, oral, 100 mg): 453 ng/mL; AUC(0-inf) ([2]; both sexes, human, plasma, oral, 100 mg, read-out: AUC0-inf Treatment B): 3800 ng·h/mL; AUC(0-t) ([2]; both sexes, human, plasma, oral, 100 mg, read-out: AUC0-t Treatment B): 3720 ng·h/mL; half-life ([2]; both sexes, human, plasma, oral, 100 mg, read-out: T1/2 Treatment B (converted)): 6.26 h; Tmax ([2]; both sexes, human, plasma, oral, 100 mg, read-out: Tmax Treatment B): 4.5 h; Tmax ([2]; both sexes, human, plasma, oral, read-out: Tmax Treatment A): 4.5 h; T1/2 Treatment A ([2]; plasma ritonavir, with TH9507, arithmetic mean (% CV)): 5.72 (23.0) h
